# Marks after values point to notes of the source that are not given here.
# Experiments:
# [1] = system: rat L-NAME-induced gestational toxicosis model; experiment: Confirmation of effects on gestational toxicosis (Test Example 2); format: in vivo
# From the text: A gestational toxicosis model was created as follows. A 17th -gestation day rat was anesthetized with ether. Then, the poll was incised approximately 10 mm to transplant in control group an osmotic pressure pump filled with L-NAME, and in the normal group, in the similar manner, an osmotic pressure pump filled with physiological saline in place of L-NAME. To the test group, in addition to the above pump, an osmotic pressure pump filled with bis(2-{[(2S)-2-({(2R)-2-hydroxy-2-[4-hydroxy-3-(2-hydroxyethyl)phenyl]ethyl}amino)-1,2,3,4-tetrahydronaphthalene-7-yl]oxy}-N,N-dimethylacetamide) monosulfate (the compound represented by the above formula (Ia)) was implanted. On the 20th gestation day, the mother animal was anesthetized with ether, and the fetus was extirpated. Severity of static gangrene at the tip of fetal extremities was examined, and the amount of maternal urinary albumin and plasma triglyceride level were measured.
# While bis(2-{[(2S)-2-({(2R)-2-hydroxy-2-[4-hydroxy-3-(2-hydroxyethyl)phenyl]ethyl)amino)-1,2,3,4-tetrahydronaphthalene-7-yl]oxy)-N,N-dimethylacetamide) monosulfate was dissolved in physiological saline and an osmotic pressure pump with the dose of 200 μg/day was inserted, L-NAME was dissolved in physiological saline to make 200 mg/mL for filling and an osmotic pressure pump with the dose of 48 mg/day was inserted.
# [2] = system: rat intrauterine growth retardation model induced by L-NAME; experiment: Confirmation of effects on IUGR (Test Example 1); format: in vivo
# From the text: IUGR model was created as follows in accordance with the method by Yallampalli et al. (Am J Obstet Gynecol, vol. 169: 1316-1320, 1993). A 17th-gestation day rat was anesthetized with ether. Then, the poll was incised approximately 10 mm to transplant in control group an osmotic pressure pump filled with L-NAME, and in the normal group, in the similar manner, an osmotic pressure pump filled with physiological saline in place of L-NAME. To the test group, in addition to the above pump, an osmotic pressure pump filled with bis(2-{[(2S)-2-({(2R)-2-hydroxy-2-[4-hydroxy-3-(2-hydroxyethyl)phenyl]ethyl}amino)-1,2,3,4-tetrahydronaphthalene-7-yl]oxy)-N,N-dimethylacetamide) monosulfate (the compound of the above formula (Ia)) was implanted. On the 20th gestation day, the mother animal was anesthetized with ether, and the fetus was extirpated and weighed. Maternal blood pressure was measured before ether anesthesia on the 17th and 20th gestation days. In statistical analysis, comparisons of control group with normal group or test group were conducted in F-test for variance. When there was equal variance, unpaired t-tests were performed. When there was unequal variance, Welch's test was performed.
# Bis(2-{[(2S)-2-({(2R)-2-hydroxy-2-[4-hydroxy-3-(2-hydroxyethyl)phenyl]ethyl}amino)-1,2,3,4-tetrahydronaphthalene-7-yl]oxy}-N,N-dimethylacetamide) sulfate was dissolved in physiological saline and an osmotic pressure pump with the dose of 50 μg/day was inserted, while L-NAME was dissolved in physiological saline to make 50 mg/mL for filling and an osmotic pressure pump with the dose of 12 mg/day was inserted.
# [3] = L-NAME 48 mg/day + compound 200 μg/day by osmotic pump from gestation day 17, examined on day 20
# [4] = L-NAME 48 mg/day + compound 200 μg/day by osmotic pump, gestation day 20
smiles,measurement,setting,value
"CN(C)C(=O)COc1ccc2c(c1)C[C@@H](NC[C@H](O)c1ccc(O)c(CCO)c1)CC2 [formula (Ia), bis(2-{[(2S)-2-({(2R)-2-hydroxy-2-[4-hydroxy-3-(2-hydroxyethyl)phenyl]ethyl}amino)-1,2,3,4-tetrahydronaphthalene-7-yl]oxy}-N,N-dimethylacetamide) monosulfate]",Static gangrene in the tip of extremities (incidence %),[1]; [3],8%
same,The number of static gangrene in the tip of extremities/The number of fetuses,[1]; [3],16/203
same,Maternal plasma triglyceride level,[1]; [4],143 µg/mL
same,Maternal urinary albumin level,[1]; [4],222.1# μg/mL
same,Change in maternal blood pressure after administration (effect on maternal heart),"[2]; 50 μg/day by osmotic pump, gestation days 17 to 20",no change in maternal blood pressure
same,Mean blood pressure of dam,"[2]; Day 20 of gestation, L-NAME 12 mg/day + compound 50 μg/day by osmotic pump",102.5 mmHg
same,Fetal body weight,"[2]; pregnant rat, L-NAME 12 mg/day + compound 50 μg/day by osmotic pump from gestation day 17, fetus weighed on day 20",3550 mg
